In patent US12157730B2, “Heteroaryl derivative, method for producing same, and pharmaceutical composition comprising same as effective component” (VORONOI INC., priority 2019, dated 2024):

Target: T1, Ba/F3 cell EGFR Exon20 ins NPH (Homo sapiens, UniProt P00533, INS773NPH)
T1 construct: expressed in transfected cells; host or cells: Ba/F3
Experiment: Ba/F3 cell proliferation suppression, EGFR Exon20 ins NPH
Assay type: cell-based
Conditions: GI50 class; Ba/F3 cell line with NPH inserted at Exon20 of EGFR; 72 hours
In short: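 After 72 h compound exposure (twelve 3-fold steps, 0.3 nM–50 um final), live cells were measured by CellTiter-Glo luminescence and growth expressed as % of control to derive GI50. Cells were seeded at 3000–5000 per well a day earlier; Ba/F3 medium contained IL-3; three repeats.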

Ba/F3 (NPH) Activity	SMILES
A (GI50 < 50 nM)	C=CC(=O)Nc1cc(Nc2cc(N3OCC[C@@H]3c3ccc(F)c(Cl)c3)ncn2)c(OC)cc1N1CCC(N2C[C@H]3C[C@@H]2CO3)CC1 [Example 257, N-(2-(4-((1R,4R)-2-oxa-5-azabicyclo[2.2.1]heptane-5-yl)piperidine-1-yl)-5-((6-((R)-3-(3-chloro-4-fluorophenyl)isoxazolidine-2-yl)pyrimidine-4-yl)amino)-4-methoxyphenyl) acrylamide]
A (GI50 < 50 nM)	C=CC(=O)Nc1cc(Nc2cc(N3OCC[C@@H]3c3cc(F)cc(F)c3)ncn2)c(F)cc1N1CCC(N2CCN(C3CC3)CC2)CC1 [compound 533, N-(2-(4-(4-cyclopropylpiperazine-1-yl)piperidine-1-yl)-5-((6-((R)-3-(3,5-difluorophenyl)isoxazolidine-2-yl)pyrimidine-4-yl)amino)-4-fluorophenyl) acrylamide]
A (GI50 < 50 nM)	C=CC(=O)Nc1cc(Nc2cc(N3OCC[C@@H]3Cc3cccc(F)c3)ncn2)c(OC)cc1N1CCC(N2CCN(C3CC3)[C@H](C)C2)CC1 [compound 994, N-(2-(4-((R)-4-cyclopropyl-3-methylpiperazine-1-yl)piperidine-1-yl)-5-((6-((S)-3-(3-fluorobenzyl)isoxazolidine-2-yl)pyrimidine-4-yl)amino)-4-methoxyphenyl) acrylamide]
A (GI50 < 50 nM)	C=CC(=O)Nc1cc(Nc2cc(N3OCC[C@@H]3c3cccs3)ncn2)c(OC)cc1N1CCN(C)CC1 [compound 929, N-(4-methoxy-2-(4-methylpiperazine-1-yl)-5-((6-((R)-3-(thiophene-2-yl)isoxazolidine-2-yl)pyrimidine-4-yl)amino)phenyl)acrylamide]
A (GI50 < 50 nM)	C#Cc1cccc([C@H]2CCON2c2cc(Nc3cc(NC(=O)C=C)c(N4CCN(CC)CC4)cc3OC)ncn2)c1 [compound 648, N-(2-(4-ethylpiperazine-1-yl)-5-((6-((R)-3-(3-ethynylphenyl)isoxazolidine-2-yl)pyrimidine-4-yl)amino)-4-methoxyphenyl) acrylamide]
A (GI50 < 50 nM)	C=CC(=O)Nc1cc(Nc2cc(N3OCC[C@@H]3c3ccc(Cl)c(F)c3)ncn2)c(OC)cc1N1CCC(N2CCN(CC)CC2)CC1 [Example 262, N-(5-((6-((R)-3-(4-chloro-3-fluorophenyl)isoxazolidine-2-yl)pyrimidine-4-yl)amino)-2-(4-(4-ethylpiperazine-1-yl)piperidine-1-yl)-4-methoxyphenyl) acrylamide]
A (GI50 < 50 nM)	C=CC(=O)Nc1cc(Nc2cc(N3OCC[C@@H]3c3ccc(F)c(Cl)c3)ncn2)c(OC)cc1N1CCC(N2CCN(C3CC3)CC2)CC1 [Example 59, N-(5-((6-((R)-3-(3-chloro-4-fluorophenyl)isoxazolidine-2-yl)pyrimidine-4-yl)amino)-2-(4-(4-cyclopropylpiperazine-1-yl)piperidine-1-yl)-4-methoxyphenyl) acrylamide;]
C (500 nM ≤ GI50 < 5000 nM)	C=CC(=O)Nc1cc(Nc2cc(N3OCC[C@@H]3c3ccc(F)c(F)c3)ncn2)c(OC)cc1N1CC[C@H](N2CCOCC2)C1 [compound 579, N-(5-((6-((R)-3-(3,4-difluorophenyl)isoxazolidine-2-yl)pyrimidine-4-yl)amino)-4-methoxy-2-((S)-3-morpholinopyrolidine-1-yl)phenyl)acrylamide]
B (50 nM ≤ GI50 < 500 nM)	C=CC(=O)Nc1cc(Nc2cc(N3OCC[C@@H]3c3ccc(F)c(F)c3F)ncn2)c(OC)cc1N1CCC(N2CCC(N(C)C)CC2)CC1 [compound 656, N-(2-(4-(dimethylamino)-[1,4'-bipiperidine]-1'-yl)-4-methoxy-5-((6-((R)-3-(2,3,4-trifluorophenyl)isoxazolidine-2-yl)pyrimidine-4-yl)amino)phenyl)acrylamide]
A (GI50 < 50 nM)	C=CC(=O)Nc1cc(Nc2cc(N3OCC[C@@H]3c3cccc(F)c3)ncn2)c(OC)cc1N1CC[C@@H](N2CCOCC2)C1 [compound 323, N-(5-((6-((R)-3-(3-fluorophenyl)isoxazolidine-2-yl)pyrimidine-4-yl)amino)-4-methoxy-2-((R)-3-morpholinopyrolidine-1-yl)phenyl) acrylamide]
B (50 nM ≤ GI50 < 500 nM)	C=CC(=O)Nc1cc(Nc2cc(N3OCC[C@@H]3c3ccc(Cl)cc3)ncn2)c(OC)cc1N1CC[C@H](N2CCOCC2)C1 [compound 734, N-(5-((6-((R)-3-(4-chlorophenyl)isoxazolidine-2-yl)pyrimidine-4-yl)amino)-4-methoxy-2-((S)-3-morpholinopyrolidine-1-yl)phenyl)acrylamide]
A (GI50 < 50 nM)	C=CC(=O)Nc1cc(Nc2cc(N3OCC[C@@H]3c3cccc(Cl)c3Cl)ncn2)c(OC)cc1N1CCN(C2CCCC2)CC1 [compound 563, N-(2-(4-cyclopentylpiperazine-1-yl)-5-((6-((R)-3-(2,3-dichlorophenyl)isoxazolidine-2-yl)pyrimidine-4-yl)amino)-4-methoxyphenyl) acrylamide]
A (GI50 < 50 nM)	C=CC(=O)Nc1cc(Nc2cc(N3OCC[C@@H]3c3cc(F)cc(F)c3)ncn2)c(OC)cc1N1CCC(N2CCN(C)C[C@H]2C)CC1 [compound 761, N-(5-((6-((R)-3-(3,5-difluorophenyl)isoxazolidine-2-yl)pyrimidine-4-yl)amino)-2-(4-((R)-2,4-dimethylpiperazine-1-yl)piperidine-1-yl)-4-methoxyphenyl) acrylamide]
C (500 nM ≤ GI50 < 5000 nM)	C=CC(=O)Nc1cc(Nc2cc(N3OCC[C@H]3c3c(F)cccc3F)ncn2)c(OC)cc1N1C[C@@H]2CCN(C)[C@@H]2C1 [compound 899, N-(5-((6-((S)-3-(2,6-difluorophenyl)isoxazolidine-2-yl)pyrimidine-4-yl)amino)-4-methoxy-2-((3aS,6aS)-1-methylhexahydropyrrolo [3,4-b]pyrrole-5(1H)-yl)phenyl) acrylamide]
A (GI50 < 50 nM)	C=CC(=O)Nc1cc(Nc2cc(N3OCC[C@@H]3c3ccc(F)c(Cl)c3)ncn2)c(OC)cc1N1CCC(N2CCN(C)[C@@H](C)C2)CC1 [compound 900, N-(5-((6-((R)-3-(3-chloro-4-fluorophenyl)isoxazolidine-2-yl)pyrimidine-4-yl)amino)-2-(4-((S)-3,4-dimethylpiperazine-1-yl)piperidine-1-yl)-4-methoxyphenyl) acrylamide]
A (GI50 < 50 nM)	C=CC(=O)Nc1cc(Nc2cc(N3OCC[C@@H]3c3ccc(F)cc3)ncn2)c(OC)cc1N1CCC(N2C[C@H]3C[C@@H]2CO3)CC1 [compound 813, N-(2-(4-((1R,4R)-2-oxa-5-azabicyclo [2.2.1]heptane-5-yl)piperidine-1-yl)-5-((6-((R)-3-(4-fluorophenyl)isoxazolidine-2-yl)pyrimidine-4-yl)amino)-4-methoxyphenyl) acrylamide]
A (GI50 < 50 nM)	C=CC(=O)Nc1cc(Nc2cc(N3OCC[C@@H]3c3cccc(Cl)c3F)ncn2)c(OC)cc1N1CCC(N2CCN(CC3CC3)CC2)CC1 [Example 96, N-(5-((6-((R)-3-(3-chloro-2-fluorophenyl)isoxazolidine-2-yl)pyrimidine-4-yl)amino)-2-(4-(4-(cyclopropylmethyl)piperazine-1-yl)piperidine-1-yl)-4-methoxyphenyl) acrylamide]
